pIC50: −log10 of the molar value.
How the values were obtained:
KIAA1363 [1] = target: T1, KIAA1363 (Homo sapiens, UniProt Q6PIU2); test: Gel-based competitive ABPP in PC3 cell proteomes, in vitro treatment; format: biochemical; design: PC3 cancer cells, which have high endogenous KIAA1363 levels; endogenous in cells; host or cells: PC3
T1 sequence (Q6PIU2 1-408): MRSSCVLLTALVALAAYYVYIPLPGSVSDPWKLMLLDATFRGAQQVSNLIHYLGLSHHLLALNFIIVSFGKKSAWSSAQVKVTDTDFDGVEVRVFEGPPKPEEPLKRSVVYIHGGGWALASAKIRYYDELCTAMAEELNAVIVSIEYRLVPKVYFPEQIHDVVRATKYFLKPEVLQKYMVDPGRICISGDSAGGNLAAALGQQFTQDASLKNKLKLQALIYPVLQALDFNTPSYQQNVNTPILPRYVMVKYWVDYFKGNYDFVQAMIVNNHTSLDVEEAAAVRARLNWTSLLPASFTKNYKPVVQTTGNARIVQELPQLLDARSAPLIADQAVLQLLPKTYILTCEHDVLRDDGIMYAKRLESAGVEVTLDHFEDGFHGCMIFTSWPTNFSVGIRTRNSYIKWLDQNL
Experimental: Inhibitors were dissolved in DMSO and diluted into media or buffer prior to cell or proteome treatment, respectively. For in vitro treatment, final DMSO concentration was 4%. For in situ treatments of cells for ABPP, lipid measurements, migration, cell-survival, and invasion assays, 2×10^6 cells were seeded in 6 cm dishes (˜100% confluency) 24 h prior to inhibitor pre-treatment (in DMSO at 0.1% final concentration) in serum-free media (3 mL) for the designated time before harvesting cells for ABPP or lipid measurements or before the initiation of migration, cell-survival, and invasion assays.
(§1) For ABPP experiments, cell lysate and tissue proteomes were treated with 1 μM FP-rhodamine for 30 min at room temperature (50 μL total reaction volume) as described previously (Nomura et al., 2010). Reactions were quenched with one volume of standard 4×SDS/PAGE loading buffer (reducing), separated by SDS/PAGE (10% acrylamide), and visualized in-gel with a Hitachi FMBio IIe flatbed fluorescence scanner (MiraiBio). Inhibitors were preincubated prior (30 min or 4 h at 37° C. in vitro or in situ, respectively) to the addition of FP-rhodamine.

KIAA1363 [2] = target: T1, KIAA1363; test: 2-acetyl MAGE hydrolytic activity assay in cancer cells treated in situ; format: cell-based; design: PC3 cancer cells, which have high endogenous KIAA1363 levels; endogenous in cells; host or cells: PC3 (2-acetyl MAGE assay also DU145 and SKOV3); settings: JW480 1 μM, 48 h; PC3 and DU145 cells
Experimental: Cells were pretreated with KIAA1363 inhibitors in situ (for 4 hr in serum-free F-12K media before harvesting cells by scraping) or in vitro (for 30 min at 37° C. in PBS) before addition of 2-acetyl MAGE (100 μM) to cell lysates at room temperature for 30 min in a volume of 200 μL. Reactions were quenched with 600 μL 2:1 chloroform:methanol and 10 nmol of C12:0 MAGE internal standard was added. The organic layer was extracted and 30 μL injected into an Agilent 1100-MSD LC-MS. LC-MS settings were as previously described (Chiang et al., 2006). Product levels (C16:0 MAGE) were quantified in relation to the internal standard. Specific activity was determined during the linear phase of enzymatic reactions (i.e., less than 20% substrate utilized).
Cell lysates (20 μg) in Tris buffer were then incubated with lipid (100 mM, e.g., 2-acetyl MAGE for KIAA1363 activity) at room temperature for 30 min in a volume of 200 ml. Reactions were quenched with 600 ml 2:1 chloroform:methanol and 10 nmol of C12:0 MAGE internal standard was added. […] Product levels (C16:0 MAGE for KIAA1363 activity) were quantified in relation to internal standard levels and standard curves generated between varying lipid concentration versus constant internal standard levels. Specific activity was determined during the linear phase of enzymatic reactions (i.e., less than 20% substrate utilized)

FAAH = target: T2, FAAH (Mus musculus, UniProt O08914); test: Competitive ABPP of FAAH in mouse brain proteome; format: biochemical; settings: gel-based competitive ABPP, 10 μM inhibitor
T2 construct: from tissue; host or cells: mouse brain
T2 sequence (O08914 1-579): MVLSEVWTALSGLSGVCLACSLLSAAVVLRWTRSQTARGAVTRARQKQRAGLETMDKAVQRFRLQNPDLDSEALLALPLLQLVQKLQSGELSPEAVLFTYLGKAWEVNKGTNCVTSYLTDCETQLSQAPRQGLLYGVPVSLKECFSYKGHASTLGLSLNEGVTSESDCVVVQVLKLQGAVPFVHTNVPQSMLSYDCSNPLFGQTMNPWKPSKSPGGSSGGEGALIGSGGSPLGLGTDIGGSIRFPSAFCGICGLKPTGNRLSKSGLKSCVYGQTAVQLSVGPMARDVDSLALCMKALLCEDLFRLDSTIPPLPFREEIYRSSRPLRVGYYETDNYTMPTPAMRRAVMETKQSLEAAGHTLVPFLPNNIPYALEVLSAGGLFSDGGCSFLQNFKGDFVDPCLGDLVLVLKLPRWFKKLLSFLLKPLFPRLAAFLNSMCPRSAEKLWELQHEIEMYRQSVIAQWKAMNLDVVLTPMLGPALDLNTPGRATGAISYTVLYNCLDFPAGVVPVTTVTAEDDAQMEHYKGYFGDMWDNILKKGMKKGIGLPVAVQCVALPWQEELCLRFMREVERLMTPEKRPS
Experimental: as §1

Row | Compound | Selectivity for KIAA1363 by gel-based competitive ABPP (KIAA1363 [1]; PC3 cells, also DU145 and LNCaP cells) | pIC50 (KIAA1363 [1]; in vitro treatment) | 2-acetyl MAGE hydrolase activity (KIAA1363 [2]) | Inhibition of FAAH / selectivity versus FAAH (FAAH)
1 | CC(C)c1ccccc1OC(=O)NCCc1ccc2ccccc2c1 [JW480, 2-isopropylphenyl (2-(naphthalen-2-yl)ethyl)carbamate] | excellent selectivity | 7.92 | completely blocked | –
2 | COc1ccc(CNC(=O)Oc2cccc3c2OC(C)(C)C3)cc1 [JW148, 2,2-dimethyl-2,3-dihydrobenzofuran-7-yl 4-methoxybenzylcarbamate] | – | – | – | good selectivity

Reference: patent US9249128B2 (priority 2010, dated 2016)
